From PubChem BioAssay (NCI)
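The compound was tested at five concentrations on cells cultured in 96-well plates, with a 48-hour exposure period. GI50 marks 50% less growth. TGI denotes the concentration required for complete inhibition of growth.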

Key:
Test in all cases: growth of human tumour cells (NCI), 48 h
[1] = test system: MDA-N
[2] = test system: XF 498 CNS
[3] = test system: KM20L2 colon
[4] = test system: HOP-18 NSCLC
[5] = test system: LXFL 529 NSCLC
[6] = test system: DLD-1 colon
[7] = test system: RXF-631 renal
[8] = test system: DMS 273 small cell lung
[9] = test system: M19-MEL melanoma

Row | Structure (SMILES) | TGI [1] | TGI [2] | TGI [3] | TGI [4] | TGI [5] | TGI [6] | TGI [7] | TGI [8] | TGI [9] | GI50 [3] | GI50 [4] | GI50 [5] | GI50 [6] | GI50 [8] | GI50 [9]
1 | C#CCn1c2c(c3ccccc3c1=O)C(=O)c1ccccc1-2 | > 100 µM | – | – | – | – | – | – | – | – | – | – | – | – | – | –
2 | COc1ccccc1NC(=O)C1=C(C)NC(C)=C(C(=O)Nc2ccccc2OC)C1c1ccc(C2C(C(=O)Nc3ccccc3OC)=C(C)NC(C)=C2C(=O)Nc2ccccc2OC)cc1 | – | 5.64 µM | 3.39 µM | 31.9 µM | 5.09 µM | 2.66 µM | 13.7 µM | 8.67 µM | 11.5 µM | – | – | – | – | – | –
3 | CNC(=O)NCCCCC(NC(=O)OCc1ccccc1)C(=O)OCc1ccccc1 (configuration not stated) | – | 33.2 µM | > 100 µM | – | > 100 µM | > 100 µM | 46.1 µM | > 100 µM | 48 µM | – | – | – | – | – | –
4 | Nc1ncnc2c1N=CN(Oc1ccccc1)N2 | – | > 100 µM | > 100 µM | – | > 100 µM | > 100 µM | > 100 µM | > 100 µM | > 100 µM | – | – | – | – | – | –
5 | [N-]=[N+]=Nc1nnc(CCCCc2nnc(N=[N+]=[N-])o2)o1 | – | > 100 µM | > 100 µM | > 100 µM | > 100 µM | > 100 µM | 58.1 µM | – | > 100 µM | – | – | – | – | – | –
6 | OCC(O)C(OC1OC(CO)C(O)C(O)C1O)c1nn(-c2ccc(Cl)cc2)c2nc3cc(Cl)c(Cl)cc3nc12 (configuration not stated) | – | > 100 µM | > 100 µM | – | > 100 µM | > 100 µM | – | – | > 100 µM | – | – | – | – | – | –
7 | O=c1c2cc(Br)ccc2n(C2OC(CO)C(O)C(O)C2O)c(=S)n1-c1ccccc1 (configuration not stated) | – | > 100 µM | > 100 µM | > 100 µM | > 100 µM | > 100 µM | – | – | > 100 µM | – | – | – | – | – | –
8 | NC(=O)/C=C/c1c[nH]c2nccnc12 | > 75.2 µM | – | 1.35 µM | 0.793 µM | 0.611 µM | 4.83 µM | – | 10.5 µM | 79 µM | – | – | – | – | – | –
9 | COc1ccc2c3c1OC1C4(CCC5C(C2)N(CC2CC2)CCC351)OCCO4 (configuration not stated) | > 100 µM | – | – | – | – | – | – | – | – | – | – | – | – | – | –
10 | COc1cc2ccnc(-c3n[nH]c4cc(OC)c(OC)cc34)c2cc1OC | – | > 100 µM | > 100 µM | > 100 µM | > 100 µM | – | 93.4 µM | > 100 µM | > 100 µM | – | – | – | – | – | –
11 | C=CC(=O)OCCCS(=O)(=O)[O-].C=CC(=O)OCCCS(=O)(=O)[O-].NC1CCCCC1N.[Pt+4] | – | – | > 25 µM | > 25 µM | > 25 µM | > 25 µM | – | > 25 µM | > 25 µM | > 25 µM | > 25 µM | > 25 µM | > 25 µM | > 25 µM | > 25 µM
12 | CC/C(=N/O)C(C)C(=O)CCC(=O)Nc1ccc(Cl)cc1 (configuration not stated) | – | > 100 µM | > 100 µM | > 100 µM | > 100 µM | > 100 µM | – | > 100 µM | > 100 µM | – | – | – | – | – | –
13 | CC[C@H](C)C(=O)O[C@H]1C[C@@H](C)C=C2C=C[C@H](C)[C@H](CC[C@@H]3C[C@@H](O)CC(=O)O3)[C@H]21 | – | – | > 30 µM | > 30 µM | > 30 µM | > 30 µM | – | > 30 µM | > 30 µM | – | – | – | – | – | –
14 | CC(C)(C)[Si](C)(C)O/N=C\c1cccc(O[Si](C)(C)C(C)(C)C)c1 | – | 32.7 µM | 38.8 µM | 42.3 µM | 29.1 µM | 33.6 µM | – | 32.6 µM | 34.6 µM | – | – | – | – | – | –
15 | COC(=O)c1ccc(N/C=C(/C#N)c2ccsc2)cc1 | – | – | 28.1 µM | – | 37.5 µM | > 100 µM | – | 37.4 µM | > 100 µM | – | – | – | – | – | –
16 | COc1ccc(C2C(C(=O)O)=C(CO)Oc3cc4c(cc32)OCO4)c(OC)c1 (configuration not stated) | – | > 100 µM | > 100 µM | > 100 µM | – | > 100 µM | > 100 µM | > 100 µM | > 100 µM | – | – | – | – | – | –
17 | CC1=C(C(=O)NCc2ccccc2)C(c2ccc(N(C)C)cc2)C(C(=O)NCc2ccccc2)=C(C)N1 | – | > 100 µM | > 100 µM | – | > 100 µM | > 100 µM | > 100 µM | > 100 µM | > 100 µM | – | – | – | – | – | –
